# Where two headings read alike, the source gives them in different places.
# Biological target: T1, thromboxane A2 receptors (TPα) of human platelets (Homo sapiens, UniProt P21731)
# T1 construct: endogenous in cells; host or cells: human platelets
# T1 sequence (P21731 1-343): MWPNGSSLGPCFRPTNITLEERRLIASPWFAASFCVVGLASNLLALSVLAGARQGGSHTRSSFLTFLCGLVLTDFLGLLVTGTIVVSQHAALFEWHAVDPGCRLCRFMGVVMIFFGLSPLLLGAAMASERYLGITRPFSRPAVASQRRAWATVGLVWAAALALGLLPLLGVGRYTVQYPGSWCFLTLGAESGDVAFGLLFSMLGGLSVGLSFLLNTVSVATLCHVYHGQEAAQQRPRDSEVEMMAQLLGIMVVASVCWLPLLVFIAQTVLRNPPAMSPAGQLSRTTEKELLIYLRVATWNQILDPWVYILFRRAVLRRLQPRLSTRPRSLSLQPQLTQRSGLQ
# Assay: Binding test: displacement of [3H]SQ-29.548 from human platelet thromboxane A2 receptors
# Settings: for inhibition at 1 µM: read-out: Affinity: percent of [3H]SQ-29.548 specifically substituted by the examined compound, compound 10^-6 M; for inhibition at 0.1 µM: read-out: Affinity: percent of [3H]SQ-29.548 specifically substituted by the examined compound, compound 10^-7 M
# From the text: To operate a first selection, the capacity of these compounds to displace in a specific way a tritium ligand, the [^3H]
# Cozzi P., Giordani A., Menichincheri M., Pillan A., Pinciroli V., Rossi A., Tonani R., Volpi D., Tamburin M., Ferrario R., Fusar D., Salvati P.,—Agents combining thromboxane receptor antagonism with thromboxane synthase inhibition:[[[2-(1H-imidazol-1-yl)ethylidene]amino]oxy]alkanoic acids.—J. Med. Chem., 1994, 37, 3588-3604.
# [1] = read-out: IC 50: concentration required for replacing 50% of [3H]SQ-29.548 bound to receptors TPα
"Affinity: percent of [3H]SQ-29.548 specifically substituted by the examined compound, 10^-6M [%]",IC50 [nM],inhibition at 1 µM [%],inhibition at 0.1 µM [%],Compound,also measured
36.5,–,–,–,CC(C)NC(=O)NS(=O)(=O)c1cc([N+](=O)[O-])ccc1Nc1cccc(C(=O)O)c1 [Compound 53],–
91.7,–,–,–,CC(C)NC(=O)NS(=O)(=O)c1cc([N+](=O)[O-])ccc1NC1CC2CCC1C2 (stereo not drawn) [Compound 54],–
–,3.4,98.2,93.3,CC(C)(C)NC(=O)NS(=O)(=O)c1cc([N+](=O)[O-])ccc1NC1CC2CCC1C2 (stereo not drawn) [Compound 55],–
0.0,–,–,–,CC(C)NC(=O)NS(=O)(=O)c1cc([N+](=O)[O-])ccc1NC(C)(C)C [Compound 56],–
67.0,–,–,–,CCCCCCNc1ccc([N+](=O)[O-])cc1S(=O)(=O)NC(=O)NC(C)C [Compound 57],–
83.2,–,–,–,CC(C)NC(=O)NS(=O)(=O)c1cc([N+](=O)[O-])ccc1NC12CC3CC(CC(C3)C1)C2 [Compound 58],–
92.2,–,–,–,CCCCCCNc1ccc([N+](=O)[O-])cc1S(=O)(=O)NC(=O)NC(C)(C)C [Compound 59],–
79.1,–,–,–,CCCCCCCCCCNc1ccc([N+](=O)[O-])cc1S(=O)(=O)NC(=O)NC(C)C [Compound 60],–
–,–,98.6,94.8,CCCCCNC(=O)NS(=O)(=O)c1cc([N+](=O)[O-])ccc1NC1CCCCC1 [Compound 61],IC50 [1]: 1.1 nM
3.7,–,–,–,CC(C)NC(=O)NS(=O)(=O)c1cc([N+](=O)[O-])ccc1N1CCOCC1 [Compound 62],–
7.5,–,–,–,CC(C)(C)NC(=O)NS(=O)(=O)c1cc([N+](=O)[O-])ccc1N1CCOCC1 [Compound 63],–
57.8,–,–,–,CC(C)NC(=O)NS(=O)(=O)c1cc([N+](=O)[O-])ccc1N1CCCCCC1 [Compound 64],–
46.6,–,–,–,O=C(Nc1ccccc1)NS(=O)(=O)c1cc([N+](=O)[O-])ccc1NC1CCCCC1 [Compound 65],–
49.6,–,–,–,CC(C)NC(=O)NS(=O)(=O)c1cc(C#N)ccc1NC1CC2CCC1C2 (stereo not drawn) [Compound 66],–
98.3,–,–,–,Cc1ccc(Nc2ccc([N+](=O)[O-])cc2S(=O)(=O)NC(=O)NC(C)(C)C)cc1 [Compound 67],"Affinity: percent of [3H]SQ-29.548 specifically substituted by the examined compound, 10^-7M: 95.8%; IC50 [1]: 1.3 nM"
93.2,–,–,–,CC(C)NC(=O)NS(=O)(=O)c1cc([N+](=O)[O-])ccc1NC1C=CCCC1 (stereo not drawn) [Compound 68],"Affinity: percent of [3H]SQ-29.548 specifically substituted by the examined compound, 10^-7M: 67.4%"
13.2,–,–,–,CC(C)NC(=O)NS(=O)(=O)c1cc(F)ccc1NC1C=CCCC1 (stereo not drawn) [Compound 69],–
63.8,–,–,–,CC(C)NC(=O)NS(=O)(=O)c1cc(Cl)ccc1NC1C=CCCC1 (stereo not drawn) [Compound 70],–
77.8,–,–,–,CC(C)NC(=O)NS(=O)(=O)c1cc(Br)ccc1NC1C=CCCC1 (stereo not drawn) [Compound 71],–
86.5,–,–,–,CC(C)NC(=O)NS(=O)(=O)c1cc(I)ccc1NC1C=CCCC1 (stereo not drawn) [Compound 72],"Affinity: percent of [3H]SQ-29.548 specifically substituted by the examined compound, 10^-7M: 52.7%"
–,1.2,98.3,95.6,Cc1cccc(Nc2ccc([N+](=O)[O-])cc2S(=O)(=O)NC(=O)NC(C)(C)C)c1C [Compound 73],–
90.9,–,–,–,CC(C)(C)NC(=NC#N)NS(=O)(=O)c1cc([N+](=O)[O-])ccc1NC1CCCCC1 [Compound 74],–

"Affinity: percent of [3H]SQ-29.548 specifically substituted by the examined compound, 10^-6M [%]",IC50 [nM],inhibition at 1 µM [%],inhibition at 0.1 µM [%],Compound,also measured
79.4,–,–,–,CC(C)NC(=O)NS(=O)(=O)c1cc([N+](=O)[O-])ccc1N[C@@H](C)c1ccccc1 [Compound 77],–
–,4.2,95.3,71.6,C[C@H](Nc1ccc([N+](=O)[O-])cc1S(=O)(=O)NC(=O)NC(C)(C)C)c1ccccc1 [Compound 78],–
96.6,–,–,–,CC(C)NC(=O)NS(=O)(=O)c1cc([N+](=O)[O-])ccc1N[C@H](C)c1ccccc1 [Compound 79],–
–,2.4,98.6,97.9,C[C@@H](Nc1ccc([N+](=O)[O-])cc1S(=O)(=O)NC(=O)NC(C)(C)C)c1ccccc1 [Compound 80],–
–,57.8,93.3,65,CCCNC(=O)NS(=O)(=O)c1cc([N+](=O)[O-])ccc1NC1CCCCC1 [Compound 81],–
–,4.5,98.5,98,CCCCNC(=O)NS(=O)(=O)c1cc([N+](=O)[O-])ccc1NC1CCCCC1 [Compound 82],–
–,4.5,98.5,92.7,CCCCCCNC(=O)NS(=O)(=O)c1cc([N+](=O)[O-])ccc1NC1CCCCC1 [Compound 83],–
–,23.9,96.9,73.7,CCCCCCCNC(=O)NS(=O)(=O)c1cc([N+](=O)[O-])ccc1NC1CCCCC1 [Compound 84],–
–,107,92.9,42.5,CCCCCCCCNC(=O)NS(=O)(=O)c1cc([N+](=O)[O-])ccc1NC1CCCCC1 [Compound 85],–
–,1.83,98.4,94.3,Cc1cc(C)c(Nc2ccc([N+](=O)[O-])cc2S(=O)(=O)NC(=O)NC(C)C)c(C)c1 [Compound 86],–
–,18.1,95.6,76,Cc1ccc(Nc2ccc([N+](=O)[O-])cc2S(=O)(=O)NC(=O)NC(C)C)cc1C [Compound 87],–
–,16.2,95.4,82,Cc1cc(C)cc(Nc2ccc([N+](=O)[O-])cc2S(=O)(=O)NC(=O)NC(C)C)c1 [Compound 88],–
–,11.5,96.6,83.5,Cc1ccc(C)c(Nc2ccc([N+](=O)[O-])cc2S(=O)(=O)NC(=O)NC(C)C)c1 [Compound 89],–
–,5.46,96.9,88.6,Cc1ccc(Nc2ccc([N+](=O)[O-])cc2S(=O)(=O)NC(=O)NC(C)C)c(C)c1 [Compound 90],–
–,3.31,97.3,90.8,Cc1cccc(C)c1Nc1ccc([N+](=O)[O-])cc1S(=O)(=O)NC(=O)NC(C)C [Compound 91],–
–,1.62,98.8,95.2,CCCCCNC(=O)NS(=O)(=O)c1cc([N+](=O)[O-])ccc1Nc1c(C)cc(C)cc1C [Compound 92],–
–,7.8,97.9,90.2,CCCCCNC(=O)NS(=O)(=O)c1cc(I)ccc1NC1C=CCCC1 (stereo not drawn) [Compound 93],–
98.4,–,–,–,CCCCCNC(=O)NS(=O)(=O)c1cc([N+](=O)[O-])ccc1Nc1ccccc1C [Compound 94],IC50 [1]: 2.82 nM
–,1.45,98.5,–,CCCCCNC(=O)NS(=O)(=O)c1cc([N+](=O)[O-])ccc1Nc1ccc(C)cc1 [Compound 95],–
–,43.9,92.3,–,CCCCCNC(=O)NS(=O)(=O)c1cc([N+](=O)[O-])ccc1Nc1cccc(C)c1 [Compound 96],–
–,98.5,89.7,–,CCCCCNC(=O)NS(=O)(=O)c1cc(C#N)ccc1NC1CCCCC1 [Compound 97],–

# Source: US6818765B1, “Benzene-sulphonamide derivatives and their uses” (Universite de Liege, priority 1999, dated 2004)
